{"source": "patent US10350213B2", "about": "(AI Therapeutics, Inc., priority 2015, dated 2019)", "key": {"[1]": {"test_system": "DU145 (Human prostate cancer)", "assay": "CellTiterGlo cell viability assay", "assay_type": "cell-based", "details": "DU-145"}, "[2]": {"test_system": "K562 (Human myelogenous leukemia)", "assay": "CellTiterGlo cell viability assay", "assay_type": "cell-based"}, "[3]": {"test_system": "U-118 MG (Human neuroblastoma)", "assay": "CellTiterGlo cell viability assay", "assay_type": "cell-based", "method": "(§1) Briefly, test compounds (5 μl stock solution, 6×desired final well concentration) were dispensed to 384-well assay plates, TSC2−/− MEF cells (1000 cells per well in 25 μL of media) were added to the plates and the plates were incubated for 72 h (3 days) at 37° C. under an atmosphere of 5% CO2 in a humidified incubator for 3 days. Cell viability was determined with CellTiter-Glo® luminescence assay (Promega) per the manufacturer's instructions. Viability was expressed as a percentage of untreated control cells.\n(§2) 35 cell lines were identified as sensitive to apilimod-induced cytotoxicity in this assay. The apilimod-sensitive cells included cells derived from several different cancers including non-Hodgkin's lymphoma, Hodgkin's lymphoma, colorectal cancer, and lung cancer. The most sensitive of those tested were non-Hodgkin's Lymphoma (NHL) cell lines. […] The only NHL subtype not sensitive in this assay was follicular."}, "[4]": {"test_system": "MOLT-4 (Human T-cell leukemia)", "assay": "CellTiterGlo cell viability assay", "assay_type": "cell-based", "method": "as §1, §2"}, "[5]": {"test_system": "SW1116 (Human colorectal cancer)", "assay": "CellTiterGlo cell viability assay", "assay_type": "cell-based", "details": "SW 1116", "method": "as §1, §2"}, "[6]": {"test_system": "SW620 (Human Colorectal)", "assay": "CellTiterGlo cell viability assay", "assay_type": "cell-based", "details": "SW-620", "method": "as §1, §2"}, "[7]": {"test_system": "COLO-320DM (Human Colorectal)", "assay": "CellTiterGlo cell viability assay", "assay_type": "cell-based", "method": "as §1, §2"}, "[8]": {"test_system": "U937 (Human histiocytic lymphoma)", "assay": "CellTiterGlo cell viability assay", "assay_type": "cell-based", "details": "U-937", "method": "as §1, §2"}, "[9]": {"test_system": "A172 (Human neuroblastoma)", "assay": "CellTiterGlo cell viability assay", "assay_type": "cell-based", "details": "A 172", "method": "as §1, §2"}, "[10]": {"test_system": "SUDHL-6 (Human Diffuse Large B Cell Lymphoma -GCB)", "assay": "CellTiterGlo cell viability assay", "assay_type": "cell-based", "details": "SU-DHL-6, Human DLBCL-GCB", "method": "as §1, §2"}, "[11]": {"test_system": "DOHH-2 (Human Follicular B Cell Lymphoma-GCB)", "assay": "CellTiterGlo cell viability assay", "assay_type": "cell-based", "details": "Human Follicular Lymphoma - DLBCL-GCB", "method": "as §1, §2"}, "[12]": {"test_system": "Rec-1 (Human Mantle Cell Lymphoma)", "assay": "CellTiterGlo cell viability assay", "assay_type": "cell-based", "details": "Rec1", "method": "as §1, §2"}, "[13]": {"test_system": "NCI-1975 (Human lung carcinoma)", "assay": "CellTiterGlo cell viability assay", "assay_type": "cell-based", "method": "as §1, §2"}, "[14]": {"test_system": "JeKo-1 (Human Mantle Cell Lymphoma)", "assay": "CellTiterGlo cell viability assay", "assay_type": "cell-based", "method": "as §1, §2"}, "[15]": {"test_system": "Daudi (Human Burkitt's lymphoma)", "assay": "CellTiterGlo cell viability assay", "assay_type": "cell-based", "method": "as §1, §2"}, "[16]": {"test_system": "H460 (Human lung carcinoma)", "assay": "CellTiterGlo cell viability assay", "assay_type": "cell-based", "details": "NCI-H460", "method": "as §1, §2"}, "[17]": {"test_system": "DB (Human B-cell lymphoma)", "assay": "CellTiterGlo cell viability assay", "assay_type": "cell-based", "details": "Human DLBCL-GCB", "method": "as §1, §2"}, "[18]": {"test_system": "NCI-H1666 (Human bronchioalveolar)", "assay": "CellTiterGlo cell viability assay", "assay_type": "cell-based", "method": "as §1, §2"}, "[19]": {"test_system": "KMH-2 (Human Hodgkin's lymphoma)", "assay": "CellTiterGlo cell viability assay", "assay_type": "cell-based", "details": "KM-H2", "method": "as §1, §2"}, "[20]": {"test_system": "ST486 (Human Burkitt's lymphoma)", "assay": "CellTiterGlo cell viability assay", "assay_type": "cell-based", "method": "as §1, §2"}, "[21]": {"test_system": "HCT-15 (Human Colorectal)", "assay": "CellTiterGlo cell viability assay", "assay_type": "cell-based", "method": "as §1, §2"}, "[22]": {"test_system": "HT (Human Diffuse Large B Cell Lymphoma -GCB)", "assay": "CellTiterGlo cell viability assay", "assay_type": "cell-based", "details": "Human DLBCL-GCB", "method": "as §1, §2"}, "[23]": {"test_system": "NCI-H1781 (Human bronchioalveolar)", "assay": "CellTiterGlo cell viability assay", "assay_type": "cell-based"}, "[24]": {"test_system": "122 human cancer cell lines representing 24 tumor types", "assay": "3-day CellTiterGlo assay, cancer cell line panel", "assay_type": "cell-based", "details": "of 122 human cancer cell lines; sensitive if IC50 less than 500 nM; 3-day assay", "source_text": "as §2"}, "[25]": {"test_system": "SW780 (Human Bladder carcinoma (GATOR−/−))", "assay": "CellTiterGlo cell viability assay", "assay_type": "cell-based"}, "[26]": {"assay": "Phase 1 dose-escalation (QD/BID) study in normal healthy volunteers", "assay_type": "in vivo, human", "details": "for Cmax: oral, human plasma, mean"}, "[27]": {"test_system": "U-87 MG (Human neuroblastoma)", "assay": "CellTiterGlo cell viability assay", "assay_type": "cell-based"}, "[28]": {"test_system": "non-Hodgkin's Lymphoma (NHL) cell lines", "assay": "3-day CellTiterGlo assay, NHL cell lines", "assay_type": "cell-based, human", "details": "sensitive if IC50 less than 500 nM; 3-day assay", "source_text": "as §2"}, "[29]": {"test_system": "WSU-DLCL2 (Human Diffuse Large B Cell Lymphoma -GCB)", "assay": "CellTiterGlo cell viability assay", "assay_type": "cell-based"}, "[30]": {"test_system": "TOV-21G (Human ovarian)", "assay": "CellTiterGlo cell viability assay", "assay_type": "cell-based", "details": "TOV21G"}, "[31]": {"test_system": "RPMI-8226 (Human plasmacytoma)", "assay": "CellTiterGlo cell viability assay", "assay_type": "cell-based"}, "[32]": {"test_system": "LnCap (Human prostate cancer)", "assay": "CellTiterGlo cell viability assay", "assay_type": "cell-based"}, "[33]": {"test_system": "SW1088 (Human neuroblastoma)", "assay": "CellTiterGlo cell viability assay", "assay_type": "cell-based"}, "[34]": {"details": "active Crohn's disease; Sands et al. 2010; cited from earlier work"}, "[35]": {"details": "Homo sapiens, 72 h, 3-day CellTiterGlo assay"}}, "note": "Read-outs that look alike come from different tables or passages of the source."}
{"smiles": "Cc1cccc(/C=N/Nc2cc(N3CCOCC3)nc(OCCc3ccccn3)n2)c1", "note": "[apilimod]", "values": [{"measurement": "IC50", "setting": "[1]", "result": "> 2000", "unit": "nM"}, {"measurement": "IC50", "setting": "[2]", "result": "> 5000", "unit": "nM"}, {"measurement": "IC50", "setting": "[3]", "result": "> 10000", "unit": "nM"}, {"measurement": "IC50", "setting": "[4]", "result": 3300, "unit": "nM"}, {"measurement": "IC50", "setting": "[5]", "result": 1500, "unit": "nM"}, {"measurement": "IC50", "setting": "[6]", "result": 90, "unit": "nM"}, {"measurement": "IC50", "setting": "[7]", "result": 2060, "unit": "nM"}, {"measurement": "IC50", "setting": "[8]", "result": 106, "unit": "nM"}, {"measurement": "IC50", "setting": "[9]", "result": 2000, "unit": "nM"}, {"measurement": "IC50", "setting": "[10]", "result": 80, "unit": "nM"}, {"measurement": "IC50", "setting": "[11]", "result": 700, "unit": "nM"}, {"measurement": "IC50", "setting": "[12]", "result": 300, "unit": "nM"}, {"measurement": "IC50", "setting": "[13]", "result": "> 10000", "unit": "nM"}, {"measurement": "IC50", "setting": "[14]; [35]", "result": "< 100", "unit": "nM"}, {"measurement": "IC50", "setting": "[14]; Human Mantle Cell Lymphoma", "result": 70, "unit": "nM"}, {"measurement": "IC50", "setting": "[15]", "result": 200, "unit": "nM"}, {"measurement": "IC50", "setting": "[16]", "result": "> 2000", "unit": "nM"}, {"measurement": "IC50", "setting": "[17]", "result": 150, "unit": "nM"}, {"measurement": "IC50", "setting": "[18]", "result": 20000, "unit": "nM"}, {"measurement": "IC50", "setting": "[19]", "result": 181, "unit": "nM"}, {"measurement": "IC50", "setting": "[20]; [35]", "result": "< 100", "unit": "nM"}, {"measurement": "IC50", "setting": "[20]; Human Burkitt's lymphoma", "result": 25, "unit": "nM"}, {"measurement": "IC50", "setting": "[21]", "result": 200, "unit": "nM"}, {"measurement": "IC50", "setting": "[22]", "result": 642, "unit": "nM"}, {"measurement": "IC50", "setting": "[23]", "result": "> 20000", "unit": "nM"}, {"measurement": "number of cell lines sensitive to apilimod-induced cytotoxicity", "setting": "[24]", "result": 35}, {"measurement": "IC50", "setting": "[25]", "result": 1000, "unit": "nM"}, {"measurement": "share of the 24 hr period with plasma concentrations above 50 ng/ml", "setting": "[26]; 50 ng/ml equal to 125 nM, 105 mg BID", "result": "~50", "unit": "%"}, {"measurement": "safety profile", "setting": "[26]; 105 mg BID, humans", "result": "tolerable safety profile"}, {"measurement": "Cmax", "setting": "[26]; Treatment E: 70 mg ×2, total 140 mg, read-out: PM Cmax", "result": 110, "unit": "ng/mL"}, {"measurement": "Cmax", "setting": "[26]; human, plasma, po, 7 mg, Treatment A: 7 mg once, total 7 mg, read-out: AM Cmax", "result": 10.8, "unit": "ng/mL"}, {"measurement": "Cmax", "setting": "[26]; human, plasma, po, 7 mg, Treatment B: 7 mg ×2, total 14 mg, read-out: AM Cmax", "result": 12.7, "unit": "ng/mL"}, {"measurement": "Cmax", "setting": "[26]; human, plasma, po, 7 mg, Treatment B: 7 mg ×2, total 14 mg, read-out: PM Cmax", "result": 8.18, "unit": "ng/mL"}, {"measurement": "Cmax", "setting": "[26]; human, plasma, po, 14 mg, Treatment C: 14 mg ×2, total 28 mg, read-out: AM Cmax", "result": 18.2, "unit": "ng/mL"}, {"measurement": "Cmax", "setting": "[26]; human, plasma, po, 14 mg, Treatment C: 14 mg ×2, total 28 mg, read-out: PM Cmax", "result": 10.7, "unit": "ng/mL"}, {"measurement": "Cmax", "setting": "[26]; human, plasma, po, 35 mg, Treatment D: 35 mg ×2, total 70 mg, read-out: AM Cmax", "result": 71.8, "unit": "ng/mL"}, {"measurement": "Cmax", "setting": "[26]; human, plasma, po, 35 mg, Treatment D: 35 mg ×2, total 70 mg, read-out: PM Cmax", "result": 63, "unit": "ng/mL"}, {"measurement": "Cmax", "setting": "[26]; human, plasma, po, 70 mg, Treatment E: 70 mg ×2, total 140 mg, read-out: AM Cmax", "result": 145, "unit": "ng/mL"}, {"measurement": "Cmax", "setting": "[26]; human, plasma, po, 105 mg, Treatment F: 105 mg ×2, total 210 mg, read-out: AM Cmax", "result": 192, "unit": "ng/mL"}, {"measurement": "Cmax", "setting": "[26]; human, plasma, po, 105 mg, Treatment F: 105 mg ×2, total 210 mg, read-out: PM Cmax", "result": 149, "unit": "ng/mL"}, {"measurement": "IC50", "setting": "[27]", "result": "> 10000", "unit": "nM"}, {"measurement": "share of NHL cell lines sensitive to apilimod", "setting": "[28]", "result": "over 50%"}, {"measurement": "IC50", "setting": "[29]; Homo sapiens, WSUDLCL2, 72 h, three-day assay, read-out: IC50 (nM) WSU-DLCL2", "result": 54, "unit": "nM"}, {"measurement": "IC50", "setting": "[29]; WSUDLCL2, Human DLBCL-GCB, read-out: IC50", "result": 160, "unit": "nM"}, {"measurement": "IC50", "setting": "[30]", "result": 7000, "unit": "nM"}, {"measurement": "IC50", "setting": "[31]", "result": "> 10000", "unit": "nM"}, {"measurement": "IC50", "setting": "[32]", "result": 3000, "unit": "nM"}, {"measurement": "IC50", "setting": "[33]", "result": "> 10000", "unit": "nM"}, {"measurement": "efficacy over placebo", "setting": "[34]", "result": "did not demonstrate efficacy over placebo"}, {"measurement": "tolerability", "setting": "[34]", "result": "well tolerated"}]}
